Measurements from article PMC10831071, “Reaction hijacking inhibition of Plasmodium falciparum asparagine tRNA synthetase” (Nature Communications, 2024).
Values joined by “and” are separate entries in the source; they are usually repeats but may differ in a detail not shown here. Equal entries are not always repeated. Where two headings read alike, the source gives them in different places.

Legend:
[1] = Metabolic stability in human liver microsomes; format: in vitro ADME; conditions: n = 2
Procedure: A solution of the test compounds in phosphate buffer solution (1 µM) was incubated in pooled human and mouse liver microsomes (0.5 mg/ml) for 0, 5, 20, 30, 45 and 60 min at 37 °C in the presence and absence of an NADPH regeneration system (NRS). The tests were carried out by TCGLS, Kolkata, India. The reaction was terminated with the addition of ice-cold acetonitrile, containing a […] standard, at designated time points. The sample was centrifuged (3300 × g) for 20 min at 20 °C and the supernatant was diluted by half in water and then analyzed by LC-MS/MS. The % parent compound remaining, half-life (T1/2) and clearance (CLint,app) were calculated using standard methodology. The experiment was carried out in duplicate. Verapamil, diltiazem, phenacetin and imipramine were used as reference standards.

P. falciparum (3D7) = test: Activity against P. falciparum 3D7 cultures, 72 h (PfLDH growth inhibition / flow cytometry); format: cell-based, Plasmodium falciparum
Procedure: Antimalarial activity against P. falciparum 3D7 was tested by TCGLS, Kolkata, India, using the lactate dehydrogenase (PfLDH) growth inhibition assay. […] Plates were shaken to ensure mixing and were placed in the dark at 21 °C for 20 min. […] P. falciparum strain (3D7) was obtained from BEI Resources.
(§1) Viability was assessed in the second cycle by flow cytometry, following labeling with 2 μM Syto-61 (Thermo Fisher Scientific)[48],[49]. Viability represents the parasitemia normalized to untreated and “kill” controls that were treated with 2 μM dihydroartemisinin (DHA; Sigma-Aldrich) for 48–72 h. For drug pulse assays, tightly synchronized Cam3.II-rev[50] parasites (1–1.5% parasitemia, 0.2% final hematocrit) were added to the plates and incubated for 6 h. Drugs were removed and the parasitemia assessed in the trophozoite stage of the next cycle.

HsAsnRS = target: T1, HsAsnRS (Homo sapiens, UniProt O43776); test: ATP consumption assay (Kinase-Glo), HsAsnRS; format: biochemical; conditions: for ATP consumption: HsAsnRS, normalised to 1 (Fig 3C)
T1 construct: HsAsnRS (residues M1–P548) and CDHsAsnRS (residues A98–P548); His6 (N, cleaved yes); made in house; host or cells: E. coli BL21 (DE3), pET11a
T1 sequence (O43776 1-548): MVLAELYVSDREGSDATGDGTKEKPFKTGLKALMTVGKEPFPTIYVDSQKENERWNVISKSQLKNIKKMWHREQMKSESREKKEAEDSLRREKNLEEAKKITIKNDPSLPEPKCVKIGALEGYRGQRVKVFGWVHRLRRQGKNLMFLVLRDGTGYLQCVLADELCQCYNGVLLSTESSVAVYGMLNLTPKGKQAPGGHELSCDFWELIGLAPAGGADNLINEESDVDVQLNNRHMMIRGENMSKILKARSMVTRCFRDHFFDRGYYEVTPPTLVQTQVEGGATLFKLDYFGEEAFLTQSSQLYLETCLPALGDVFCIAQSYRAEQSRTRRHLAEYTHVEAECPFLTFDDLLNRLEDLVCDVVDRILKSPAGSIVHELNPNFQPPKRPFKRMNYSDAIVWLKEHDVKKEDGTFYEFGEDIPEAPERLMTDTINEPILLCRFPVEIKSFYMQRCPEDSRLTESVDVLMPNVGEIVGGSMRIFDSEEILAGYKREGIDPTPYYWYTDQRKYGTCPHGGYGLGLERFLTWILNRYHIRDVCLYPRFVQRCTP

[2] = test system: P. falciparum Cam3.II-rev; test: Drug pulse (6 h) viability assay; format: cell-based, Plasmodium falciparum
Procedure: as §1

[3] = Stability in rat hepatocytes; format: in vitro ADME
[4] = test system: Dd2 parasites selected with OSM-S-106; test: Sensitivity of ramp-up OSM-S-106-selected Dd2 clones; format: cell-based; conditions: Plasmodium falciparum

Nc1ncnc2cc(-c3cccc(S(N)(=O)=O)c3)sc12 [OSM-S-106]
Degradation half-life [1]: 395/619
IC50 (P. falciparum (3D7); Plasmodium falciparum, 3D7, 72 h, read-out: Pf3D7 IC50(72 h), 72 h, mean ± SD or duplicate values): 58 ± 17 nM
IC50 (P. falciparum (3D7); Plasmodium falciparum, 3D7, read-out: amount needed to kill parasite cultures): ~60 nM
IC50 (P. falciparum (3D7); read-out: Pf3D7 IC50 (72h), individual biological repeats (source data of Table 1)): 61.1 nM and 52.7 nM and 87.1 nM and 79.6 nM and 50.5 nM and 48.8 nM and 37.9 nM and 43.7 nM
ATP consumption (HsAsnRS; 0.1 μM OSM-S-106): 0.9809 and 0.9695 and 0.9878
IC50 (HsAsnRS; 0.2 μM HsAsnRS, E. coli tRNA present, 37 °C, 1 h (Fig. 3C, D)): > 100000 nM
ATP consumption (HsAsnRS; 1 μM OSM-S-106): 0.993 and 0.9826 and 1
ATP consumption (HsAsnRS; 3 μM OSM-S-106): 0.9931 and 0.9791 and 0.9532
ATP consumption (HsAsnRS; 10 μM OSM-S-106): 0.9721 and 1 and 0.9745
ATP consumption (HsAsnRS; 30 μM OSM-S-106): 0.9297 and 0.9566 and 0.9615
ATP consumption (HsAsnRS; 100 μM OSM-S-106): 0.955 and 0.928 and 0.9784
ATP consumption (HsAsnRS; 200 μM OSM-S-106): 0.929 and 0.9898
Viability ([2]; 78.1 nM, 6 h pulse, individual experiments, 0 nM = 100): 93.5356 and 88.7263
Viability ([2]; 156.3 nM, 6 h pulse, individual experiments, 0 nM = 100): 81.4036 and 83.8337
Viability ([2]; 312.5 nM, 6 h pulse, individual experiments, 0 nM = 100): 81.9846 and 75.9519
Viability ([2]; 625 nM, 6 h pulse, individual experiments, 0 nM = 100): 76.0359 and 75.5937
Viability ([2]; 1250 nM, 6 h pulse, individual experiments, 0 nM = 100): 77.505 and 78.8039
Viability ([2]; 2500 nM, 6 h pulse, individual experiments, 0 nM = 100): 63.2365 and 57.9681
Viability ([2]; 5000 nM, 6 h pulse, individual experiments, 0 nM = 100): 58.8326 and 46.673 and 10.7308
Viability ([2]; 10000 nM, 6 h pulse, individual experiments, 0 nM = 100): 6.448 and 2.352 and 1.857
Viability ([2]; 20000 nM, 6 h pulse, individual experiments, 0 nM = 100): 0 and 0.3604 and 0.5288
Viability ([2]; 40000 nM, 6 h pulse, individual experiments, 0 nM = 100): 1.032 and 0 (2×)
viability at 0.0781 µM ([2]; Plasmodium falciparum, 6 h, 78.1 nM, 6 h pulse, individual experiments, 0 nM = 100): 77.5%
viability at 0.1563 µM ([2]; Plasmodium falciparum, 6 h, 156.3 nM, 6 h pulse, individual experiments, 0 nM = 100): 80.2%
viability at 0.3125 µM ([2]; Plasmodium falciparum, 6 h, 312.5 nM, 6 h pulse, individual experiments, 0 nM = 100): 81.3%
viability at 0.625 µM ([2]; Plasmodium falciparum, 6 h, 625 nM, 6 h pulse, individual experiments, 0 nM = 100): 79.9%
viability at 1.25 µM ([2]; Plasmodium falciparum, 6 h, 1250 nM, 6 h pulse, individual experiments, 0 nM = 100): 79.8%
viability at […] ([2]; Plasmodium falciparum, 6 h, 2500 nM, 6 h pulse, individual experiments, 0 nM = 100): 77.1%
IC50 ([2]; Plasmodium falciparum, 6 h, read-out: IC50 (Viability)): 4700 nM
stability during incubation with rat hepatocytes [3]: stable
IC50 ([4]; DD2, parasite Dd2-B2-2 (parent)): 79 ± 12 nM
IC50 ([4]; DD2, parasite Dd2-B2-3 (parent)): 80 nM
IC50 ([4]; DD2, parasite Dd2-OSM-2A6): 700 nM
IC50 ([4]; DD2, parasite Dd2-OSM-2A9): 320 nM
IC50 ([4]; DD2, parasite Dd2-OSM-2B2): 700 nM
IC50 ([4]; DD2, parasite Dd2-OSM-2D6): 780 nM
IC50 ([4]; DD2, parasite Dd2-OSM-3E5): 160 nM
IC50 ([4]; DD2, parasite Dd2-OSM-3H7): 220 nM
